Results: PMC9948614, “Structural and functional properties of the Kunitz-type and C-terminal domains of Amblyomin-X supporting its antitumor activity” (Frontiers in Molecular Biosciences, 2023)
Like-named read-outs stand apart in the source and are kept apart here. No end group written: not given here.

Tests used:
[1] = test system: MIA PaCa-2; experiment: MTT cell viability assay; assay type: cell-based, human; settings: 48 h
Protocol: (§1) Cell viability was measured by 3-(4,5-dimethylthiazol-2-yl)-2,5-diphenyltetrazolium bromide (MTT) assay, as described elsewhere ([Morais et al., 2016]). […] After 48h, 10% of 5 mg/ml MTT was added to the cells and the plates were incubated for 3 h at 37 °C. Afterward, the medium was discarded, the dark blue formazan crystalline product was dissolved in 100 µL dimethyl sulfoxide (DMSO), and the absorbance was measured in a Spectra MAX 190 microplate reader (Molecular Devices, Sunnyvale, United States) at 540 nm.
(§2) Amblyomin-X (50 μM) were used for comparative purpose. Besides, staurosporine (5 μM), MG-132 (3 μM) and bortezomib (80 nM) were used as a positive control.

[2] = test system: SK-MEL-28; experiment: Microinjection assay, cell death by PI staining; assay type: cell-based, human; settings: SK-MEL-28, microinjection of 488-labeled molecule, both 20 µM, 4 h; about 50 cells per condition
Protocol: SK-MEL-28 cells were plated on glass Cellocate coverslips for 24 h before injection. […] Staurosporine (10 µM) was added directly to the medium for 6 h and was used as a control for PI staining. Ctrl cells were maintained in a culture medium. The solution was injected into the cytoplasm an average of 50 cells for each condition (compensation pressure: 30 hPa; injection pressure: 100 hPa; injection time: 0.3 s). Immediately after injection, cells were replaced with fresh medium in the incubator at 37 °C. After 4 h, cells were stained with PI (1 μg/ml – contain RNAse A 100 ng/ml) for 15 min at r.t.. Then, cells were washed twice with 1X PBS and fixed with 4% paraformaldehyde for 15 min at r.t... Finally, cells were washed with 1X PBS and one drop of solution anti-fade mounting Vectashield® (Vecta Labs) was applied on the slide with the coverslip containing the cells facing down and, then, sealed. The analysis was performed in Leica SP8 confocal microscope (Leica, Germany): Green fluorescence was used to identify microinjected cells and red fluorescence to score cell death.

[3] = molecular target: T1, FXa (Homo sapiens, UniProt P00742); experiment: FXa activity assay, chromogenic substrate S-2765; assay type: biochemical; settings: FXa 40 nM, 30 min 37 °C, 20 mM Tris–HCl, PS/PC 2 µM, 5 mM CaCl2, pH 8.0, S-2765 200 µM, 405 nm
T1 construct: the active factor X (FXa)
Protocol: Supplementary material 1 - FXa activity assays - FXa (40 nM) was incubated with varying concentrations of the Amblyomin-X recombinant protein and the synthetic domains for 30 min at 37 °C in 20 mM Tris–HCl containing PS/PC (2 µM) and 5 mM CaCl2, pH 8.0. Cleavage of the chromogenic substrate S-2765 (200µM, Chromogenix, UK) was monitored at 405 nm (SpectraMax 190, Molecular Devices, USA). The percentage of inhibition was determined from the residual activity of the enzymes as previously reported15, 16.

[4] = test system: SK-MEL-28; settings: for Vesicles counts: SK-MEL-28, Alexa-Fluor 488-labeled molecule 20 µM, 37°C, ImageXpress Micro Confocal, mean ± SD of three independent experiments
Protocol: (§3) An additional step was carried out for the purification of peptides using FPLC. SK-MEL-28 and MIA PaCa-2 (10^5 cells/well) were seeded on sterile 35 mm culture dishes. First, a cell-based assay using fluorochrome conjugated molecules was carried by incubation with Amblyomin-X and its synthetic domains (20 µM) in a fresh medium at 37°C for 4 h and nuclei were stained with […] Syto59 (Invitrogen Life Technologies Inc., United States). Then red and green fluorescence were monitored by LSM 510 Meta confocal microscope (Zeiss, Jena, Germany). […] After treatment with synthetic fragments (all at 5 µM) in a fresh medium at 37°C for 4h, tumor cells were scanned on the x-, y-, and z-axes using a confocal microscope TCS SP8 (Leica Microsystems, GmbH Mannheim, DE) with 40x/1.1 objective lens and laser excitation at 405 and 488 nm with additional brightfield channel using the LAS X software (Leica Microsystems, GmbH Mannheim, DE). The images were deconvolved in Huygens Essential version 22.04 (Scientific Volume Imaging, Netherlands).
(§4) Following the same rationale, after treatment, cells were incubated with Alexa Fluor 555 TrF (100 μg/ml), Alexa Fluor 555 CTxB (50 μg/ml) or Alexa Fluor 555 dextran (1 mg/ml) in the binding medium at 37 °C for 20 min. Also, to evaluate cargo-delivery ability of C-ter, tumor cells were incubated with p15 (100 μM) or this molecule conjugate to C-ter (100 μM) for 4 h. […] Finally, evaluation of C-ter derived fragments (all at 10 μM) were investigated after 4 h of treatment.
(§5) In all 96 wells plate assays, nuclei were stained with Hoechst 33342 and fluorescence was monitored by a Molecular Devices ImageXpress Micro Confocal plate-scanning microscope (Molecular Devices, Sunnyvale, CA). Vesicles count were analyzed using MetaXpress software (Molecular Devices, CA) with Transfluor Application Module.

[5] = test system: SK-MEL-28; experiment: Cellular uptake by confocal laser scanning microscopy; settings: SK-MEL-28, Alexa Fluor 488-labeled molecule 20 µM, 4 h, 37°C
Protocol: as §3

[6] = test system: SK-MEL-28; experiment: MTT cell viability assay; settings: 48 h
Protocol: as §1, §2

[7] = test system: SK-MEL-28; settings: for Uptake of fluorescent (FITC) peptide by cells: SK-MEL-28, 5 or 10 µM, 6 h, ImageXpress Micro Confocal / confocal TCS SP8
Protocol: An additional step was carried out for the purification of peptides using FPLC. SK-MEL-28 and MIA PaCa-2 (10^5 cells/well) were seeded on sterile 35 mm culture dishes. […] […] The images were deconvolved in Huygens Essential version 22.04 (Scientific Volume Imaging, Netherlands).
Following the same rationale, after treatment, cells were incubated with Alexa Fluor 555 TrF (100 μg/ml), Alexa Fluor 555 CTxB (50 μg/ml) or Alexa Fluor 555 dextran (1 mg/ml) in the binding medium at 37 °C for 20 min. Also, to evaluate cargo-delivery ability of C-ter, tumor cells were incubated with p15 (100 μM) or this molecule conjugate to C-ter (100 μM) for 4 h. […]
as §5

[8] = test system: dynein chains; experiment: Gene expression of dynein chains by real-time PCR; assay type: cell-based, human
Protocol: Gene expression was evaluated via quantitative real-time polymerase chain reaction (qPCR) according to standard protocols previously reported by our group ([Pacheco et al., 2014]; [Morais et al., 2016]). Briefly, after cell treatment, the total RNA was extracted using the RNeasy kit (Qiagen, Netherlands) followed by DNase treatment, Then, cDNA strands were constructed using a SuperScript® III First-Strand Synthesis kit (InvitrogenTM, Life Technologies Inc., United States), according to manufacturer’s instructions. Finally, the samples were applied in a SYBR® green (Applied Biosystems, United States)-based reaction with specific and validated primers to evaluate mRNA levels of genes coding for dynein chains. RNA levels were normalized to glyceraldehyde 3-phosphate dehydrogenase (GAPDH) and quantified using the Livak 2^−ΔΔCT method ([Livak and Schmittgen, 2001]). The experiments were conducted by Step One Plus® PCR real-time system (Applied Biosystems, United States).

[9] = test system: MIA PaCa-2; settings: MIA PaCa-2, Alexa-Fluor 488-labeled molecule 20 µM, 37°C, ImageXpress Micro Confocal, Transfluor module, mean ± SD of three independent experiments
Protocol: as §3, §4, §5

[10] = MIA PaCa-2, synthetic domains 0.2–100 μM
[11] = SK-MEL-28, synthetic domains 0.2–100 μM
[12] = tumor cells, other fragments and TAT-Kunitz data not shown

T1 sequence (P00742 235-488 limits assumed): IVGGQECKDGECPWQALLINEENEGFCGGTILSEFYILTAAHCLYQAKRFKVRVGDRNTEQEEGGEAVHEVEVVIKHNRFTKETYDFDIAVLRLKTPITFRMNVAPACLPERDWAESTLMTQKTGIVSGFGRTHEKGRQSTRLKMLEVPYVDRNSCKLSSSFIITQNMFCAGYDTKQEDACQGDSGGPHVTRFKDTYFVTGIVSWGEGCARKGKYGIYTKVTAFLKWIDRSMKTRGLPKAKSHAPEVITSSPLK
T1 sequence (P00742 41-179 partner limits assumed): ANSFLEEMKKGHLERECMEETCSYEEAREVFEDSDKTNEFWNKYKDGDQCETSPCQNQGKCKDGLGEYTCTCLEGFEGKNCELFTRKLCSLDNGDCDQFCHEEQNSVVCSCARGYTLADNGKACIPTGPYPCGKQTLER

For “ANSKAVCNLPKAGDETCSNKTEIRWYYNGTACEAFIFKGCGGNDNNFDRVDDCQRLC-NH2 (also: bicyclic or more (positions not given here)) [Kunitz]”, the “Effect on cell viability (MTT)” value [1, 10] was “no alteration”, the “Propidium iodide (PI) staining after microinjection” value [2] was 26% and the “Inhibitory activity against FXa” value [3] was “lower inhibitory activity against FXa than TFPI-K2”. For the same substance, the “Number of vesicles relative to complete Amblyomin-X” value [4] was “ten-fold less”, the “Uptake by cells (green fluorescence, confocal)” value [5] was “not detected inside the cells” and the “Effect on cell viability (MTT)” value [6, 11] was “no alteration”.
“C^#WMSPRHLGT C^#EEQTHFHFESPKLISFKVQDYWILNDIMKKNLTGISLKSEEEDADSGEID (disulfide) [p15-C-ter]” was tested, and the “Effect on cell viability (MTT)” value ([1]; MIA PaCa-2, 100 μM) was “decreased cell viability”, the “Internalization relative to the non-conjugated molecule (p15)” value [4] was “eight-fold more internalized” and the “Effect on cell viability (MTT)” value ([6]; SK-MEL-28, 100 μM) was “decreased cell viability”.
For “EEQTHFHFESPKLIFKVQDYWILNDIMKKNLTGISLKSEEEDADSGEID [C-ter]”, the “Uptake of fluorescent (FITC) peptide by cells” value [7] was “uptaken”, the “Cells counts per well” value ([7]; SK-MEL-28, fluorescent peptides 10 µM, all treatments investigated) was “No alterations in cells counts” and the “Gene expression of dynein chains” value [8, 12] was “modulated gene expression of dynein chains”. The “Effect on cell viability (MTT)” value [1, 10] was “no alteration”, the Vesicles counts ([4]; 0.25 h, MetaXpress Transfluor module) was 30.84 ± 17.2 and the Vesicles counts ([4]; 0.5 h, Transfluor module) was 35.56 ± 21.09. For the same substance, the Vesicles counts ([4]; 1 h, Transfluor module) was 62.17 ± 11.20, the Vesicles counts ([4]; 2 h, Transfluor module) was 558.48 ± 189.00 and the Vesicles counts ([4]; 4 h, Transfluor module) was 1210.74 ± 379.14. It also gave a Vesicles counts ([9]; 0.25 h) of 4.36 ± 2.03, a Vesicles counts ([9]; 0.5 h) of 17.50 ± 24.63 and a Vesicles counts ([9]; 1 h) of 10.59 ± 7.15. The Vesicles counts ([9]; 2 h) was 171.11 ± 248.57, the Vesicles counts ([9]; 4 h) was 802.63 ± 353.12 and the “Uptake by cells (green fluorescence, confocal)” value [5] was “uptaken”. The “Effect on cell viability (MTT)” value [6, 11] was “no alteration”.
With “FKVQDYWILNDIMKKNLTGI* [F2C, C-ter derived fragment 16-35, minimum length C-terminal domain able to enter SK-MEL-28 cells]” the “Relative fluorescence units (RFU) compared with other peptides” value ([7]; SK-MEL-28, 10 µM, even in short times of treatment) was “higher values of relative fluorescence units (RFU)”, the “Uptake of fluorescent (FITC) peptide by cells” value [7] was “detected in the cell” and the “Gene expression of dynein chains” value ([8]; SK-MEL-28, 5 µM, 24 h, real-time PCR, normalized to GAPDH) was “modulate gene expression of all dynein chains evaluated”. For the same substance, the “Gene expression of dynein chains” value [8, 12] was “modulated gene expression of dynein chains”.
With “GRKKRRQRRRPPQANSKAVCNLPKLAGDETCSNKTEIRWYYNGTACEAFIFKGCGGNDNNFDRVDDCQRLC-NH2 (also: bicyclic or more (positions not given here)) [TAT-Kunitz]” the “Cytotoxicity (MTT)” value ([6]; TAT-Kunitz at 20 and 50 μM, cell line not stated at the place (Figure 7B)) was “significant cytotoxicity activity”.
